IC50 data for 31 molecules are collected here from patent publication US9662327B2 (AGIOS PHARMACEUTICALS, INC, priority 2011, dated 2017).

One assay deals with IDH1 R132H (Homo sapiens (Human), UniProt O75874, R132H). Kind of assay: Assays for IDH1 R132H Inhibitors (NADPH/aKG, resazurin detection). It is filed as biochemical. The conditions noted are these: IDH1 R132H enzyme, Table 2; read-out: IDHR132H Activity. As to the method: Assays were conducted in a volume of […] assay buffer (150 mM NaCl, 10 mM MgCl2, 20 mM Tris pH 7.5, 0.03% bovine serum albumin) as follows in a standard 384-well plate: To 25 ul of substrate mix (8 uM NADPH, 2 mM aKG), 1 μl of test compound was added in DMSO. […] The reaction was incubated for 50 minutes at room temperature, then 25 μl of detection mix (30 μM resazurin, […]) was added and the mixture further incubated for 5 minutes at room temperature.
Chain of IDH1 R132H (O75874 whole entry R132H): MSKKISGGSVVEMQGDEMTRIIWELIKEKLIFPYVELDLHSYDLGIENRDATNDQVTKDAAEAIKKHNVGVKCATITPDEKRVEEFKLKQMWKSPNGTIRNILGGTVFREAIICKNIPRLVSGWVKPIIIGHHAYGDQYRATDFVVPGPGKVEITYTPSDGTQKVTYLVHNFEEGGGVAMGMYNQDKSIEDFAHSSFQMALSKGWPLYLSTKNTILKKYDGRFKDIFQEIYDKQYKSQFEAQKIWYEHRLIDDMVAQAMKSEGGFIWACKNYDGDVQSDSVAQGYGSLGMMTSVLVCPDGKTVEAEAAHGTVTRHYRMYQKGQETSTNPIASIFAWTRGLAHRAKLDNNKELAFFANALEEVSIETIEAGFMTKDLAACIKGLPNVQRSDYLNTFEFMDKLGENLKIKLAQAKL
On the technique in general: Alamar Blue is a resazurin reagent that responds to reducing activity.
For `CNC(=O)N1CCN(c2nc(C3CCCCC3)c3c(c2C#N)CCOC3)C[C@H]1C` [Compound 357, (R)-4-(5-cyano-8-cyclohexyl-3,4-dihydro-1H-pyrano[3,4-c]pyridin-6-yl)-N,2-dimethylpiperazine-1-carboxamide], the IC50 was in the range of 1000 to 10000 nM.

As to `COCCC(=O)N1CCN(c2nc(C3CCCCC3)c3c(c2C#N)CC(C)(C)OC3)C[C@H]1C` [Compound 312, (R)-8-cyclohexyl-6-(4-(3-methoxypropanoyl)-3-methylpiperazin-1-yl)-3,3-dimethyl-3,4-dihydro-1H-pyrano[3,4-c]pyridine-5-carbonitrile], the IC50 is 1000 to 10000 nM.

Regarding `CC(C)c1nc(N2CCN(C(=O)c3cocn3)[C@H](C(C)C)C2)c(C#N)c2c1COC(C)(C)C2` [Compound 212, (R)-8-isopropyl-6-(3-isopropyl-4-(oxazole-4-carbonyl)piperazin-1-yl)-3,3-dimethyl-3,4-dihydro-1H-pyrano[3,4-c]pyridine-5-carbonitrile], the IC50 is 500 to 1000 nM.

Regarding `CC(C)c1nc(N2CCN(C(=O)c3ccco3)[C@H](C(C)C)C2)c(C#N)c2c1COC(C)(C)C2` [Compound 171, (R)-6-(4-(furan-2-carbonyl)-3-isopropylpiperazin-1-yl)-8-isopropyl-3,3-dimethyl-3,4-dihydro-1H-pyrano[3,4-c]pyridine-5-carbonitrile], the IC50 is less than 500 nM.

Consider `CC[C@@H]1CN(c2nc(C(C)C)c3c(c2C#N)CC(C)(C)OC3)CCN1C(=O)c1ccoc1C` [Compound 207, (R)-6-(3-ethyl-4-(2-methylfuran-3-carbonyl)piperazin-1-yl)-8-isopropyl-3,3-dimethyl-3,4-dihydro-1H-pyrano[3,4-c]pyridine-5-carbonitrile], for which the IC50 is less than 500 nM.

With `C[C@H]1CN(C(=O)c2ccco2)CCN1c1nc(C2CC2)c2c(c1C#N)CC(C)(C)OC2` [Compound 203, (S)-8-cyclopropyl-6-(4-(furan-2-carbonyl)-2-methylpiperazin-1-yl)-3,3-dimethyl-3,4-dihydro-1H-pyrano[3,4-c]pyridine-5-carbonitrile], the IC50 lay in the range of 1000 to 10000 nM.

Turning to `COc1ccc(NC(=O)N2CCN(c3nc(C4CC4)c4c(c3C#N)CC(C)(C)OC4)C[C@H]2C(C)C)cc1` [Compound 316, (R)-4-(5-cyano-8-cyclopropyl-3,3-dimethyl-3,4-dihydro-1H-pyrano[3,4-c]pyridin-6-yl)-2-isopropyl-N-(4-methoxyphenyl)piperazine-1-carboxamide], the IC50 was in the range of 1000 to 10000 nM.

Consider `CC(C)[C@@H]1CN(c2nc(C3CC3)c3c(c2C#N)CC(C)(C)OC3)CCN1C(=O)NCC1CC1` [Compound 365], for which the IC50 was 1000 to 10000 nM.

Take `CC(C)[C@@H]1CN(c2nc(C3CC3)c3c(c2C#N)CC(C)(C)OC3)CCN1C(=O)Cn1cccn1` [Compound 325, (R)-6-(4-(2-(1H-pyrazol-1-yl)acetyl)-3-isopropylpiperazin-1-yl)-8-cyclopropyl-3,3-dimethyl-3,4-dihydro-1H-pyrano[3,4-c]pyridine-5-carbonitrile]: the IC50 lay within 500 to 1000 nM.

`C[C@@H]1CN(c2nc(C3CCCCC3)c3c(c2C#N)CCOC3)CCN1C(=O)c1cscn1` [Compound 239, (R)-8-cyclohexyl-6-(3-methyl-4-(thiazole-4-carbonyl)piperazin-1-yl)-3,4-dihydro-1H-pyrano[3,4-c]pyridine-5-carbonitrile]: the IC50 fell in the range of 1000 to 10000 nM.

`CC(C)[C@@H]1CN(c2nc(C3CC3)c3c(c2C#N)CC(C)(C)OC3)CCN1C(=O)C1CCOCC1` [Compound 305]: the IC50 is 1000 to 10000 nM.

In the case of `C[C@@H]1CN(c2nc(C3CC3)c3c(c2C#N)CC(C)(C)OC3)[C@@H](C)CN1C(=O)Cc1cccs1` [Compound 309], the IC50 lay in the range of 1000 to 10000 nM.

Regarding `CC(C)c1nc(N2CCN(C(=O)Cc3ccccc3)CC2)c(C#N)c2c1COC(C)(C)C2` [Compound 144, 8-isopropyl-3,3-dimethyl-6-(4-(2-phenylacetyl)piperazin-1-yl)-3,4-dihydro-1H-pyrano[3,4-c]pyridine-5-carbonitrile], the IC50 is 1000 to 10000 nM.

Take `CCOC(=O)C1CN(c2nc(C3CCCCC3)c3c(c2C#N)CCOC3)CCN1C(=O)c1ccoc1` (stereo not shown) [Compound 258, ethyl 4-(5-cyano-8-cyclohexyl-3,4-dihydro-1H-pyrano[3,4-c]pyridin-6-yl)-1-(furan-3-carbonyl) piperazine-2-carboxylate]: the IC50 was in the range of 1000 to 10000 nM.

For `C[C@@H]1CN(c2nc(C3CCCC3)c3c(c2C#N)CCOC3)C[C@H](C)N1C(=O)NC1CCCCC1` [Compound 127, (2S,6R)-4-(5-cyano-8-cyclopentyl-3,4-dihydro-1H-pyrano[3,4-c]pyridin-6-yl)-N-cyclohexyl-2,6-dimethylpiperazine-1-carboxamide], the IC50 lay in the range of 1000 to 10000 nM.

Turning to `CC(C)[C@@H]1CN(c2nc(C3CC3)c3c(c2C#N)CC(C)(C)OC3)CCN1C(=O)OC(C)(C)C` [Compound 306, (R)-tert-butyl 4-(5-cyano-8-cyclopropyl-3,3-dimethyl-3,4-dihydro-1H-pyrano[3,4-c]pyridin-6-yl)-2-isopropylpiperazine-1-carboxylate], the IC50 was in the range of 1000 to 10000 nM.

As for `C[C@@H]1CN(c2nc(C3CCCCC3)c3c(c2C#N)CCOC3)CCN1C(=O)c1ccsc1` [Compound 242, (R)-8-cyclohexyl-6-(3-methyl-4-(thiophene-3-carbonyl)piperazin-1-yl)-3,4-dihydro-1H-pyrano[3,4-c]pyridine-5-carbonitrile], the IC50 lay within 1000 to 10000 nM.

On to `CC[C@@H]1CN(c2nc(C3CC3)c3c(c2C#N)CC(C)(C)OC3)CCN1C(=O)CCOC` [Compound 297, (R)-8-cyclopropyl-6-(3-ethyl-4-(3-methoxypropanoyl)piperazin-1-yl)-3,3-dimethyl-3,4-dihydro-1H-pyrano[3,4-c]pyridine-5-carbonitrile], for which the IC50 is less than 500 nM.

As for `CC(C)c1nc(N2CCN(C(=O)c3ccc(Cl)c(Cl)c3)CC2)c(C#N)c2c1COCC2` [Compound 105, 6-(4-(3,4-dichlorobenzoyl)piperazin-1-yl)-8-isopropyl-3,4-dihydro-1H-pyrano[3,4-c]pyridine-5-carbonitrile], the IC50 lay within 1000 to 10000 nM.

Turning to `Cc1occc1C(=O)N1CCN(c2nc(C(C)C)c3c(c2C#N)CCOC3)C(c2ccccc2)C1` (stereo not shown) [Compound 177, 8-isopropyl-6-(4-(2-methylfuran-3-carbonyl)-2-phenylpiperazin-1-yl)-3,4-dihydro-1H-pyrano[3,4-c]pyridine-5-carbonitrile], the IC50 fell in the range of 1000 to 10000 nM.

Regarding `CC[C@@H]1CN(c2nc(C3CC3)c3c(c2C#N)CC(C)(C)OC3)CCN1C(=O)c1ccoc1C` [Compound 237, (R)-8-cyclopropyl-6-(3-ethyl-4-(2-methylfuran-3-carbonyl)piperazin-1-yl)-3,3-dimethyl-3,4-dihydro-1H-pyrano[3,4-c]pyridine-5-carbonitrile], the IC50 is less than 500 nM.

`CSCCC(=O)N1CCN(c2nc(C3CC3)c3c(c2C#N)CC(C)(C)OC3)C[C@H]1C(C)C` [Compound 269, (R)-8-cyclopropyl-6-(3-isopropyl-4-(3-(methylthio)propanoyl)piperazin-1-yl)-3,3-dimethyl-3,4-dihydro-1H-pyrano[3,4-c]pyridine-5-carbonitrile]: the IC50 was less than 500 nM.

With `COCCC(=O)N1CCN(c2nc(C3CCCCC3)c3c(c2C#N)CCOC3)C[C@H]1C` [Compound 240, (R)-8-cyclohexyl-6-(4-(3-methoxypropanoyl)-3-methylpiperazin-1-yl)-3,4-dihydro-1H-pyrano[3,4-c]pyridine-5-carbonitrile], the IC50 was in the range of 1000 to 10000 nM.

With `CCOC(=O)C1CN(c2nc(C3CCCCC3)c3c(c2C#N)CCOC3)CCN1C(=O)CCOC` (stereo not shown) [Compound 278, ethyl 4-(5-cyano-8-cyclohexyl-3,4-dihydro-1H-pyrano[3,4-c]pyridin-6-yl)-1-(3-methoxypropanoyl) piperazine-2-carboxylate], the IC50 fell in the range of 1000 to 10000 nM.

`Cc1ccc(S(=O)(=O)N2CCN(c3nc(C4CC4)c4c(c3C#N)CC(C)(C)OC4)C[C@H]2C(C)C)cc1` [Compound 302, (R)-8-cyclopropyl-6-(3-isopropyl-4-tosylpiperazin-1-yl)-3,3-dimethyl-3,4-dihydro-1H-pyrano[3,4-c]pyridine-5-carbonitrile]: the IC50 fell in the range of 1000 to 10000 nM.

Consider `CON(C)CC(=O)N1CCN(c2nc(C3CC3)c3c(c2C#N)CC(C)(C)OC3)C[C@H]1C(C)C` [Compound 338], for which the IC50 was in the range of 1000 to 10000 nM.

For `CC[C@@H]1CN(c2nc(C3CC3)c3c(c2C#N)CC(C)(C)OC3)CCN1C(=O)Cc1cccs1` [Compound 236], the IC50 is less than 500 nM.

As to `CCOC(=O)C1CN(c2nc(C3CCCCC3)c3c(c2C#N)CCOC3)CCN1C(=O)CCSC` (stereo not shown) [Compound 313, ethyl 4-(5-cyano-8-cyclohexyl-3,4-dihydro-1H-pyrano[3,4-c]pyridin-6-yl)-1-(3-(methylthio)-propanoyl)piperazine-2-carboxylate], the IC50 was in the range of 1000 to 10000 nM.

As for `COc1ccccc1CC(=O)N1CCN(c2nc(C(C)C)c3c(c2C#N)CC(C)(C)OC3)C[C@H]1C` [Compound 199, (R)-8-isopropyl-6-(4-(2-(2-methoxyphenyl)acetyl)-3-methylpiperazin-1-yl)-3,3-dimethyl-3,4-dihydro-1H-pyrano[3,4-c]pyridine-5-carbonitrile], the IC50 fell in the range of 1000 to 10000 nM.

Consider `CC1(C)Cc2c(C#N)c(N3CCN(C(=O)c4ccco4)[C@@H](c4ccccc4)C3)nc(C3CC3)c2CO1` [Compound 273], for which the IC50 lay in the range of 500 to 1000 nM.

Still in this assay, the particulars now being: IDH1 R132H enzyme, Table 3; read-out: R132H IC50.
On to `CC(C)[C@@H]1CN(c2nc(C3CC3)c3c(c2C#N)CC(C)(C)OC3)CCN1C(=O)CS(C)(=O)=O` [Compound 446, (R)-8-cyclopropyl-6-(3-isopropyl-4-(2-(methylsulfonyl)acetyl)piperazin-1-yl)-3,3-dimethyl-3,4-dihydro-1H-pyrano[3,4-c]pyridine-5-carbonitrile], for which the IC50 lay within 500 to 1000 nM.
